How the values were obtained:
Assay type in all cases: functional, cell-based
Settings in all cases: dog
[1] = target: T1, ATP-dependent translocase ABCB1 (Homo sapiens, UniProt P08183); test: TP_TRANSPORTER: transepithelial transport in MDR1-expressing MDCK cells
[2] = target: T1, ATP-dependent translocase ABCB1; test: TP_TRANSPORTER: transepithelial transport of Rhodamine 123 in the presence of Hoechst 33342 at a concentration of 5uM in MDR1-expressing MDCK cells
[3] = target: T1, ATP-dependent translocase ABCB1; test: TP_TRANSPORTER: transepithelial transport of Hoechst 33342 in the presence of Daunorubicin (Daunomycin) at a concentration of 80uM in MDR1-expressing MDCK cells
[4] = target: T1, ATP-dependent translocase ABCB1; test: TP_TRANSPORTER: transepithelial transport of Rhodamine 123 in the presence of Daunorubicin (Daunomycin) at a concentration of 80uM in MDR1-expressing MDCK cells

T1 sequence (P08183 whole entry): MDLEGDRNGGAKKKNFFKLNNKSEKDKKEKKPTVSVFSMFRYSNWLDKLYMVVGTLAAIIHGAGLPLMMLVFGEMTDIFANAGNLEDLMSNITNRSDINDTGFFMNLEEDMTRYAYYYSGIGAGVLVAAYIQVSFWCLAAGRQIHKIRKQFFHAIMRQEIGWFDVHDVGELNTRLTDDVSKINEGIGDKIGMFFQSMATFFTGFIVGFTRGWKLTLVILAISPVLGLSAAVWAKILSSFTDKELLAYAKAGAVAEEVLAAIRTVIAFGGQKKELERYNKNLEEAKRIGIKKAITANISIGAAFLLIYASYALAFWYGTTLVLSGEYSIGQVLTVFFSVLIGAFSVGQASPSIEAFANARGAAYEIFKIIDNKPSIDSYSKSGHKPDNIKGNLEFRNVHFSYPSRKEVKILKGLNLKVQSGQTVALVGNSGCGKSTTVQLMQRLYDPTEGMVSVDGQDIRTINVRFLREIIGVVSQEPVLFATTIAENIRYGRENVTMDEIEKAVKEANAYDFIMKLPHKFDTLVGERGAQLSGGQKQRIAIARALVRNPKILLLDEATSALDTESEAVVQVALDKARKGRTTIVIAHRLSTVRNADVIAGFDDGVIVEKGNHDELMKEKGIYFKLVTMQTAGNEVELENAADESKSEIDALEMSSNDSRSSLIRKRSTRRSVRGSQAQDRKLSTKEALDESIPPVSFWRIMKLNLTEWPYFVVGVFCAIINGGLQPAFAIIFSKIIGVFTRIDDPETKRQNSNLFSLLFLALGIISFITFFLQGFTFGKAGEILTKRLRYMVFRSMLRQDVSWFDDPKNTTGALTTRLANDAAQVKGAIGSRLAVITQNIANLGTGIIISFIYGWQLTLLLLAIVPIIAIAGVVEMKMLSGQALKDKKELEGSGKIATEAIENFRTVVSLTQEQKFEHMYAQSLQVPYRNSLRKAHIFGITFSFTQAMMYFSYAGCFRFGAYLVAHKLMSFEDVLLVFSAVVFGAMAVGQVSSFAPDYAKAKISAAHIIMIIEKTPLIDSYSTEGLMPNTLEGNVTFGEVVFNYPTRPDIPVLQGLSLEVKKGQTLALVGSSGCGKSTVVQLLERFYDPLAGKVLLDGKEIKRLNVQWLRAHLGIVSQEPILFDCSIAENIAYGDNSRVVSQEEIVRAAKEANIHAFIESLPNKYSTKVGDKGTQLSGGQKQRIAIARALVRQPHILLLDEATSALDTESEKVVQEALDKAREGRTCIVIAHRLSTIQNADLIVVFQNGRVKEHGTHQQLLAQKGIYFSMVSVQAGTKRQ

SMILES | Activity [1] | Activity [2] | Activity [3] | Activity [4]
COC(=O)c1ccccc1-c1c2ccc(=N)cc-2oc2cc(N)ccc12.Cl [RHODAMINE123] | substrate [+] | – | – | –
CCOc1ccc(-c2nc3cc(-c4nc5cc(N6CCN(C)CC6)ccc5[nH]4)ccc3[nH]2)cc1 | substrate [+] | inhibitor [+] | – | –
COc1cccc2c1C(=O)c1c(O)c3c(c(O)c1C2=O)C[C@@](O)(C(C)=O)C[C@@H]3O[C@H]1C[C@H](N)[C@H](O)[C@H](C)O1 [DAUNORUBICIN] | – | – | inhibitor [+] | inhibitor [+]
